For assay [1], the target named is T1, PBCV-1 ThyX (Paramecium bursaria Chlorella virus 1, UniProt O41156).
T1 construct: made in house; host or cells: E. coli BL21
Nature of the assay: NADPH oxidation assay of ThyX activity (decrease of A340). Format: biochemical, Paramecium bursaria chlorella virus (PBCV-1).

The target in assay [2] is T1, PBCV-1 ThyX. Description: 'deprotonation' activity (tritium release assay from [5-3H]dUMP). Format: biochemical, Paramecium bursaria chlorella virus (PBCV-1). Conditions: compound 20 µM.
For assay [3], the target named is T1, PBCV-1 ThyX. Nature of the assay: ThyX assay under anaerobic conditions (NADPH oxidation at 340 nm, FAD reduction at 450 nm). Type of assay: biochemical, Paramecium bursaria chlorella virus (PBCV-1). As to conditions: 100 μM dUMP or inhibitor, 400 μM NADPH, 77 μM ThyX bound FAD. As for the experimental part:
ThyX assays (100 μl) under anaerobic conditions contained 77 μM of PBCV-1 ThyX bound FAD in 300 mM NaCl, 1 mM MgCl2, 10 per cent glycerol (m/v) and 50 mM HEPES, pH 8.0. Samples were made anaerobic by repeatedly degassing with argon. Traces of oxygen were removed using the glucose oxidase system (60 units of glucose oxidase and catalase in the presence of 10 mM glucose). Where indicated, 100 μM dUMP, 100 μM inhibitor C8-C1 and 400 μM NADPH were added using an air-tight syringe. NADPH oxidation and FAD reduction were followed spectroscopically (optical path length 1 mm) at 340 and 450 nm, respectively.

For assay [4], the target named is T1, PBCV-1 ThyX. Also on record: method as in PMID 15471872. As to conditions: cited from earlier work.
For the next assay, the system named is Thermotoga maritima ThyX. Conditions: T. maritima ThyX; no reference given; cited from earlier work.
The subject of assay [5] is E. coli FE010 carrying plasmid overexpressing PBCV-1 thyX. Nature of the assay: Growth inhibition with IPTG-induced overexpression of PBCV-1 ThyX (selectivity factor, ratio of CFUs).
Description: Escherichia coli MG1655 (wild-type, thyA^+ tdk^+) and FE010 [ΔthyA::PBCV-1 thyX tdk^+] [26] were grown at 37°C either in thymidine-containing LB medium or thymidine-free M9 minimal medium supplemented with 0.1 mM CaCl2, 2 mM MgSO4 and 0.2 per cent casamino acids (Difco). IPTG-induced overexpression of target protein PBCV-1 ThyX was used to test titration of inhibitor in the bacterial cell. When necessary, thymidine (40 µg ml^−1) and kanamycin (40 µg ml^−1) were added to the growth medium. The cells were then harvested and washed two times with M9 medium to remove the remaining thymidine. The cells were diluted to an OD600 of approximately 0.1 using M9 medium and 1 ml of cell suspension was transferred to 24-well microplates (Nunc). Compounds were dissolved in DMSO and were added at indicated concentrations. No cells and DMSO-only controls were included for each medium composition. The plates were closed with plastic lids and incubated at 37°C with shaking at 160 r.p.m. […] Colony-forming units (CFU) per millilitre for each growth condition were determined from three independent experiments.
The values reported are means of three individual experiments. Hundred per cent refers to cell viability, measured as CFU, in the absence of inhibitor. […]
The target in assay [6] is T1, PBCV-1 ThyX. Description: C8-C1 induced quenching of FAD fluorescence. As to conditions: authors' unpublished data. Type of assay: binding.
Description: We stress that the total PBCV-1 ThyX concentration used in these assays was 10 μM.
The target in another assay is T2, M. tuberculosis ThyX (Mycobacterium tuberculosis, UniProt P9WG57).
T2 construct: made in house; host or cells: E. coli BL21
Type of assay: biochemical.

The test system of assay [7] is E. coli FE010 (ΔthyA::PBCV-1 thyX tdk+). Description: Growth inhibition (CFU) of genetically modified E. coli dependent on thyX.
Description: (§1) Escherichia coli MG1655 (wild-type, thyA^+ tdk^+) and FE010 [ΔthyA::PBCV-1 thyX tdk^+] [26] were grown at 37°C either in thymidine-containing LB medium or thymidine-free M9 minimal medium supplemented with 0.1 mM CaCl2, 2 mM MgSO4 and 0.2 per cent casamino acids (Difco). IPTG-induced overexpression of target protein PBCV-1 ThyX was used to test titration of inhibitor in the bacterial cell. When necessary, thymidine (40 µg ml^−1) and kanamycin (40 µg ml^−1) were added to the growth medium. The cells were then harvested and washed two times with M9 medium to remove the remaining thymidine. The cells were diluted to an OD600 of approximately 0.1 using M9 medium and 1 ml of cell suspension was transferred to 24-well microplates (Nunc). Compounds were dissolved in DMSO and were added at indicated concentrations. No cells and DMSO-only controls were included for each medium composition. The plates were closed with plastic lids and incubated at 37°C with shaking at 160 r.p.m. After 24 h of incubation, 100 µl of 10-fold serial dilutions were plated onto LB plates or LB plates supplemented with kanamycin (40 µg ml^−1) when appropriate. Colonies were enumerated after overnight incubation at 37°C. Colony-forming units (CFU) per millilitre for each growth condition were determined from three independent experiments.
Another assay deals with C. trachomatis ThyX. Nature of the assay: ThyX activity with isolated C. trachomatis ThyX. Format: biochemical, Chlamydia trachomatis.
For assay [8], the system named is E. coli MG1655 (wild-type, thyA+ tdk+). Description: Growth inhibition (CFU) of isogenic wild-type E. coli. Conditions: Escherichia coli, MG1655, 24 h, read-out: growth inhibition.
Description: as §1
The target of assay [9] is T3, human thymidylate synthase (Homo sapiens, UniProt P04818).
T3 construct: made in house; host or cells: E. coli BL21
Description: Human thymidylate synthase activity. Type of assay: biochemical. Conditions: data not shown.

For a further assay, the target named is T4, H. pylori ThyX (Helicobacter pylori, UniProt O26061).
T4 construct: made in house; host or cells: E. coli BL21
T4 sequence (O26061 1-208): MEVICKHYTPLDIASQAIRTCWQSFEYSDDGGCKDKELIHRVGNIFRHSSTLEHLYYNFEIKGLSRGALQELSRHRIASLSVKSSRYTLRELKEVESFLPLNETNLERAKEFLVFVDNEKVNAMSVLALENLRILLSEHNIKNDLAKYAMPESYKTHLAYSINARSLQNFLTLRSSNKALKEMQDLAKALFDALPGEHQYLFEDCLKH
Format: biochemical.

Where [10] appears, read: 10 µM total PBCV-1 ThyX, 5 µM dUMP, 200 µM NADPH, read-out: IC50 (µM) NADPH oxidation.

Each structure is given as a SMILES string. Read-outs that look alike come from different tables or passages of the source. Marks after values point to notes of the source that are not given here.

T1 sequence (O41156 whole entry): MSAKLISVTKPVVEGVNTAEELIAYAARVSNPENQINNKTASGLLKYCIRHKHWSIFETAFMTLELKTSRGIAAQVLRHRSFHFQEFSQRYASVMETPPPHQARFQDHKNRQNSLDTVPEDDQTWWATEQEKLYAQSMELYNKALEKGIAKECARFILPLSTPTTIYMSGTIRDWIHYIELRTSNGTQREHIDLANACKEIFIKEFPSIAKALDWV
T2 sequence (P9WG57 whole entry): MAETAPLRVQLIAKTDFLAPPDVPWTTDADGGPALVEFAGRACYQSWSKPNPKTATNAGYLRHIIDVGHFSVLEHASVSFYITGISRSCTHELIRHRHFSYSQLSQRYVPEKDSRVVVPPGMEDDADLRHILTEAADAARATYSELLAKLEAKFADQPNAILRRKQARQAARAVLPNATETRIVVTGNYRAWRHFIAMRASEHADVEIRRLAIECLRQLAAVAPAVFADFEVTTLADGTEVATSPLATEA
T3 sequence (P04818 whole entry): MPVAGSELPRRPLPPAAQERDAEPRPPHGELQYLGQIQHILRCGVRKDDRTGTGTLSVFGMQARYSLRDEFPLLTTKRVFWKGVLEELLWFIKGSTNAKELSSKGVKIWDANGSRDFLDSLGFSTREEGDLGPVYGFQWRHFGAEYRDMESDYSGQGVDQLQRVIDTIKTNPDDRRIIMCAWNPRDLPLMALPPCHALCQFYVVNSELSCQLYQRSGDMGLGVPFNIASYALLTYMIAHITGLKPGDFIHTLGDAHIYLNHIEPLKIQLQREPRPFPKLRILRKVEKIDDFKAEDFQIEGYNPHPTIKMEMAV

A word on the IC50: it is the concentration that inhibits the measured activity by half. The inhibition is the drop in the measured response relative to a control, in per cent. For `O=C(CC1=C(O)C(=O)c2ccccc2C1=O)c1ccccc1` [E11-C1, 2-hydroxy-3-(2-oxo-2-phenylethyl)-1,4-naphthoquinone], on PBCV-1 ThyX [1] (setting [10]), the half-maximal inhibitory concentration (IC50) stood at 11 µM. The compound also came in with an inhibition at 20 µM against PBCV-1 ThyX [2] of 36 ± 5%.
Take `O=c1ccn([C@H]2C[C@H](O)[C@@H](COP(=O)(O)O)O2)c(=O)[nH]1` [dUMP, 2′-deoxyuridine-5′-monophosphate, reference compound]: the “FAD reduction (nmol)” value at PBCV-1 ThyX [3] is on record as 8.9^a nmol. Moreover, on PBCV-1 ThyX [3], the “NADPH oxidation” value came to 11.3 nmol. For the same compound, the “activating factor of NAD(P)H oxidase activity” value at PBCV-1 ThyX [4] is listed as more than 20; in the assay with Thermotoga maritima ThyX, 5–7.
Consider `COc1ccc(C(=O)CC2=C(O)C(=O)c3ccccc3C2=O)cc1` [G3-C1, 2-hydroxy-3-(2-(4-methoxyphenyl)-2-oxoethyl)-1,4-naphthoquinone], for which the IC50 on PBCV-1 ThyX [1] (setting [10]) came out at 10 µM. Also, at 20 µM the inhibition at PBCV-1 ThyX [2] was 22 ± 7%.
Broadly, the Kd is the constant that tells how readily two partners part at equilibrium. As for `COc1ccc(CC2=C(O)C(=O)c3ccccc3C2=O)cc1` [C8-C1, 2-hydroxy-3-(4-methoxybenzyl)-1,4-naphthoquinone], the “effect of ThyX overexpression on growth inhibition (selectivity factor)” value in assay [5] (50 μg ml−1, with vs without IPTG induction) is reported as “less-potent growth inhibition”. Also, at PBCV-1 ThyX [3], the “FAD reduction (nmol)” value is 0^b nmol and the “NADPH oxidation” value is given as 0 nmol. At PBCV-1 ThyX [1], this compound returned an IC50 of 4.5 µM. The “inhibition modality with respect to NADPH” value at PBCV-1 ThyX [1] (IC50 plotted against NADPH concentration) is listed as “tight-binding uncompetitive inhibition”. For the same compound, the “inhibition modality with respect to dUMP” value against PBCV-1 ThyX [1] (IC50 plotted against dUMP concentration) was “tight-binding competitive inhibitor”. Moreover, the Ki at PBCV-1 ThyX [1] (Ki after correcting for total enzyme and dUMP concentration, competitive with respect to dUMP) amounted to 0.46 µM. Moreover, on PBCV-1 ThyX [1] (apparent Ki (Morrison equation), with respect to dUMP, uncorrected), the Ki turned out to be 1.5 µM. The “Ki (uncompetitive, NADPH)” value at PBCV-1 ThyX [1] (with respect to NADPH) was 4.45 µM. This compound also returned an inhibition at 20 µM against PBCV-1 ThyX [2] of 78 ± 4%. At PBCV-1 ThyX [6], this compound came in with a dissociation constant (Kd) of approximately 0.4 µM.
Consider `O=C(CC1=C(O)C(=O)c2ccccc2C1=O)c1cccs1` [H3-C1, 2-hydroxy-3-(2-oxo-2-(thiophen-2-yl)ethyl)-1,4-naphthoquinone], for which the 50% inhibitory concentration (IC50) on PBCV-1 ThyX [1] (setting [10]) amounted to 7 µM. Also, the inhibition at 20 µM on PBCV-1 ThyX [2] was found to be 38 ± 3%.
The corresponding values for `Cc1ccc(C(=O)CC2=C(O)C(=O)c3ccccc3C2=O)cc1` [F3-C1, 2-hydroxy-3-(2-oxo-2-p-tolylethyl)-1,4-naphthoquinone] are 7 µM and 38 ± 7%.
For the compound `O=C1C=C(Br)C(=O)c2c(O)cccc21` [2E04, 2-bromo-8-hydroxy-1,4-naphthoquinone], the “effect on ThyX activity” value on M. tuberculosis ThyX, in the assay on C. trachomatis ThyX and at H. pylori ThyX was “specifically decreased the activity” each time. Further, the “effect of ThyX overexpression on growth inhibition (selectivity factor)” value in assay [5] (1.5 μg ml−1, with vs without IPTG induction) is “less-potent growth inhibition”. For the same compound, the “growth inhibition after addition of thymidine to the growth medium” value in assay [7] (1.5 μg ml−1, thymidine added) is given as “reversed”. The inhibition at 1.5 µg/mL is approximately 80% in assay [7] (Escherichia coli, 24 h, read-out: inhibition of bacterial growth) and 10 to 15% in assay [8]. In addition, the “inhibitory effect on human thymidylate synthase” value in assay [9] is reported as “No inhibitory effect”.
For `O=C(O)c1ccccc1NC1=CC(=O)c2c(O)cccc2C1=O` [B3-C1, 2-(5-hydroxy-1,4-dioxo-1,4-dihydronaphthalen-2-ylamino)benzoic acid], the half-maximal inhibitory concentration (IC50) on PBCV-1 ThyX [1] (setting [10]) was more than 10 µM. The inhibition at 20 µM against PBCV-1 ThyX [2] came out at 12 ± 6%.

The values above are taken from publication PMC3498832, “Mechanistic and structural basis for inhibition of thymidylate synthase ThyX” (Open Biology, 2012).
